From ChEMBL document CHEMBL4049403, “Oligo-aspartic acid conjugates with benzo[c][2,6]naphthyridine-8-carboxylic acid scaffold as picomolar inhibitors of CK2” (Bioorg Med Chem, 2017)
Where a SMILES comes first, the peptide text is derived from it. The star is where a group is joined. X1 = O=C(O)c1ccc2c(c1)nc(OCCCCCCCCC(=O)*)c1ccncc12

Experiments:
[1] = target: Dual specificity mitogen-activated protein kinase kinase 2 (Homo sapiens) (UniProt P36507); assay: Inhibition of human MKK2 assessed as residual activity at 1 uM in presence of [33P]ATP by filter binding assay relative to control
[2] = target: Aurora kinase B (Homo sapiens) (UniProt Q96GD4); assay: Inhibition of human Aurora B assessed as residual activity at 1 uM in presence of [33P]ATP by filter binding assay relative to control
[3] = target: Inhibitor of nuclear factor kappa-B kinase subunit epsilon (Homo sapiens) (UniProt Q14164); assay: Inhibition of human IKKe assessed as residual activity at 1 uM in presence of 33P-ATP by filter-binding assay relative to control
[4] = target: Dual specificity protein kinase CLK2 (Homo sapiens) (UniProt P49760); assay: Inhibition of human CLK2 assessed as residual activity at 1 uM in presence of 33P-ATP by filter-binding assay relative to control
[5] = target: Serine/threonine-protein kinase PLK1 (Homo sapiens) (UniProt P53350); assay: Inhibition of human PLK1 assessed as residual activity at 1 uM in presence of 33P-ATP by filter-binding assay relative to control
[6] = target: Glycogen synthase kinase-3 beta (Homo sapiens) (UniProt P49841); assay: Inhibition of human GSK3beta assessed as residual activity at 1 uM in presence of 33P-ATP by filter-binding assay relative to control
[7] = target: Tyrosine-protein kinase Lck (Homo sapiens) (UniProt P06239); assay: Inhibition of human Lck assessed as residual activity at 1 uM in presence of 33P-ATP by filter-binding assay relative to control
[8] = target: Ribosomal protein S6 kinase alpha-5 (Homo sapiens) (UniProt O75582); assay: Inhibition of human MSK1 assessed as residual activity at 1 uM in presence of 33P-ATP by filter-binding assay relative to control
[9] = target: Tyrosine-protein kinase BTK (Homo sapiens) (UniProt Q06187); assay: Inhibition of human BTK assessed as residual activity at 1 uM in presence of 33P-ATP by filter-binding assay relative to control
[10] = target: Serine/threonine-protein kinase BRSK1 (Homo sapiens) (UniProt Q8TDC3); assay: Inhibition of human BRSK1 assessed as residual activity at 1 uM in presence of 33P-ATP by filter-binding assay relative to control
Homo sapiens [11] = species: Homo sapiens; assay: Inhibition of human VEGFR assessed as residual activity at 1 uM in presence of 33P-ATP by filter-binding assay relative to control
[12] = target: Proto-oncogene tyrosine-protein kinase Src (Homo sapiens) (UniProt P12931); assay: Inhibition of human Src assessed as residual activity at 1 uM in presence of [33P]ATP by filter binding assay relative to control
[13] = target: Mitogen-activated protein kinase kinase kinase 7 (Homo sapiens) (UniProt O43318); assay: Inhibition of human TAK1 assessed as residual activity at 1 uM in presence of [33P]ATP by filter binding assay relative to control
[14] = target: Calcium/calmodulin-dependent protein kinase kinase 2 (Homo sapiens) (UniProt Q96RR4); assay: Inhibition of human CAMKKb assessed as residual activity at 1 uM in presence of [33P]ATP by filter binding assay relative to control
[15] = target: MAP/microtubule affinity-regulating kinase 3 (Homo sapiens) (UniProt P27448); assay: Inhibition of human MARK3 assessed as residual activity at 1 uM in presence of [33P]ATP by filter binding assay relative to control
[16] = target: Mitogen-activated protein kinase 1 (Homo sapiens) (UniProt P28482); assay: Inhibition of human ERK2 assessed as residual activity at 1 uM in presence of [33P]ATP by filter binding assay relative to control
[17] = target: MAP/microtubule affinity-regulating kinase 4 (Homo sapiens) (UniProt Q96L34); assay: Inhibition of human MARK4 assessed as residual activity at 1 uM in presence of [33P]ATP by filter binding assay relative to control
[18] = target: Serine/threonine-protein kinase 24 (Homo sapiens) (UniProt Q9Y6E0); assay: Inhibition of human MST3 assessed as residual activity at 1 uM in presence of [33P]ATP by filter binding assay relative to control
[19] = target: Serine/threonine-protein kinase PINK1, mitochondrial (Homo sapiens) (UniProt Q9BXM7); assay: Inhibition of human PINK assessed as residual activity at 1 uM in presence of [33P]ATP by filter binding assay relative to control
Homo sapiens [20] = species: Homo sapiens; assay: Inhibition of human PHK assessed as residual activity at 1 uM in presence of [33P]ATP by filter binding assay relative to control
[21] = target: Interleukin-1 receptor-associated kinase 1 (Homo sapiens) (UniProt P51617); assay: Inhibition of human IRAK1 assessed as residual activity at 1 uM in presence of [33P]ATP by filter binding assay relative to control
[22] = target: Serine/threonine-protein kinase PAK 5 (Homo sapiens) (UniProt Q9P286); assay: Inhibition of human PAK5 assessed as residual activity at 1 uM in presence of [33P]ATP by filter binding assay relative to control
[23] = target: Aurora kinase A (Homo sapiens) (UniProt O14965); assay: Inhibition of human Aurora A assessed as residual activity at 1 uM in presence of [33P]ATP by filter binding assay relative to control
[24] = target: Misshapen-like kinase 1 (Homo sapiens) (UniProt Q8N4C8); assay: Inhibition of human MINK1 assessed as residual activity at 1 uM in presence of [33P]ATP by filter binding assay relative to control
[25] = target: Platelet-derived growth factor receptor alpha (Homo sapiens) (UniProt P16234); assay: Inhibition of human PDGFRA assessed as residual activity at 1 uM in presence of [33P]ATP by filter binding assay relative to control
[26] = target: Interleukin-1 receptor-associated kinase 4 (Homo sapiens) (UniProt Q9NWZ3); assay: Inhibition of human IRAK4 assessed as residual activity at 1 uM in presence of [33P]ATP by filter binding assay relative to control
[27] = target: Mitogen-activated protein kinase kinase kinase 1 (Homo sapiens) (UniProt Q13233); assay: Inhibition of human MEKK1 assessed as residual activity at 1 uM in presence of [33P]ATP by filter binding assay relative to control
[28] = target: Serine/threonine-protein kinase PAK 4 (Homo sapiens) (UniProt O96013); assay: Inhibition of human PAK4 assessed as residual activity at 1 uM in presence of [33P]ATP by filter binding assay relative to control
[29] = target: Mitogen-activated protein kinase 13 (Homo sapiens) (UniProt O15264); assay: Inhibition of human P38d MAPK assessed as residual activity at 1 uM in presence of [33P]ATP by filter binding assay relative to control
[30] = target: Serine/threonine-protein kinase 16 (Homo sapiens) (UniProt O75716); assay: Inhibition of human MPSK1 assessed as residual activity at 1 uM in presence of [33P]ATP by filter binding assay relative to control

Tyrosine-protein kinase BTK (Homo sapiens), sequence (Q06187 whole entry): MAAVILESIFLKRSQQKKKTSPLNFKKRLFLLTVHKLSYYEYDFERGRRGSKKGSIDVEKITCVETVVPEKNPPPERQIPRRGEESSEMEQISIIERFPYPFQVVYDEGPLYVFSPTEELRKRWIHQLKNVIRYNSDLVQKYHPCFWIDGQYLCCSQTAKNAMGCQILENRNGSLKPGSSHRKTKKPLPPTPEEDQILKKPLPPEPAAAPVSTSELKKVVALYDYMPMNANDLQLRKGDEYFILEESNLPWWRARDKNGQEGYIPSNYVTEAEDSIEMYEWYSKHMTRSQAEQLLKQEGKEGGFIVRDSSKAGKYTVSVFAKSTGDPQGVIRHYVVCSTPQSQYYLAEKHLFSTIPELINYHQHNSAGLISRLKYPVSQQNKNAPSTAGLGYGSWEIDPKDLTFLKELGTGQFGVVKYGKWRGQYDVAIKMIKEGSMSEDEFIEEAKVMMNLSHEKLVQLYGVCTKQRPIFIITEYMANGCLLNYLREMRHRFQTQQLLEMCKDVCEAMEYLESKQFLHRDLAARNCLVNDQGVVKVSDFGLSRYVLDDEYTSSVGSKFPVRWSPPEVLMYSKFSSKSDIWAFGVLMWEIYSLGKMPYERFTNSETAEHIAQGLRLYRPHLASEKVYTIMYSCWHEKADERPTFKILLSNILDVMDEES
Interleukin-1 receptor-associated kinase 1 (Homo sapiens), sequence (P51617 whole entry, looked up): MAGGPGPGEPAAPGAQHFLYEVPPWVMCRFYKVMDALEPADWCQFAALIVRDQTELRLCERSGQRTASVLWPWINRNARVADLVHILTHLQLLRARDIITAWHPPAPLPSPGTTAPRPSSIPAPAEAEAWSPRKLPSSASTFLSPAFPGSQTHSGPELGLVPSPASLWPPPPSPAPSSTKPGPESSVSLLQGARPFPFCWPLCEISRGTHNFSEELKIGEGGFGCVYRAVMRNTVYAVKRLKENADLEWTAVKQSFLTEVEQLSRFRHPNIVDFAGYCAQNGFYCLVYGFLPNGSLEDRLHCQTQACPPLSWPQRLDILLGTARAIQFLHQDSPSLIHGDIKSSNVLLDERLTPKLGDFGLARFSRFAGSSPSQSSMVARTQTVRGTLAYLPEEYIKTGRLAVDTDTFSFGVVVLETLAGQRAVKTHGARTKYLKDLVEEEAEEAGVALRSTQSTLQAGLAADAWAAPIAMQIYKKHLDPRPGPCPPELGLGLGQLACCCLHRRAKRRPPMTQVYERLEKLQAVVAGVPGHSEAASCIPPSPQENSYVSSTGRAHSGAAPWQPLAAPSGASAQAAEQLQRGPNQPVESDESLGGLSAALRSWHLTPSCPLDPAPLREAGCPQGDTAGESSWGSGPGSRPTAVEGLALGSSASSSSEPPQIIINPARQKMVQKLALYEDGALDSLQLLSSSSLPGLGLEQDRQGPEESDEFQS
Tyrosine-protein kinase Lck (Homo sapiens), sequence (P06239 2-509 limits assumed): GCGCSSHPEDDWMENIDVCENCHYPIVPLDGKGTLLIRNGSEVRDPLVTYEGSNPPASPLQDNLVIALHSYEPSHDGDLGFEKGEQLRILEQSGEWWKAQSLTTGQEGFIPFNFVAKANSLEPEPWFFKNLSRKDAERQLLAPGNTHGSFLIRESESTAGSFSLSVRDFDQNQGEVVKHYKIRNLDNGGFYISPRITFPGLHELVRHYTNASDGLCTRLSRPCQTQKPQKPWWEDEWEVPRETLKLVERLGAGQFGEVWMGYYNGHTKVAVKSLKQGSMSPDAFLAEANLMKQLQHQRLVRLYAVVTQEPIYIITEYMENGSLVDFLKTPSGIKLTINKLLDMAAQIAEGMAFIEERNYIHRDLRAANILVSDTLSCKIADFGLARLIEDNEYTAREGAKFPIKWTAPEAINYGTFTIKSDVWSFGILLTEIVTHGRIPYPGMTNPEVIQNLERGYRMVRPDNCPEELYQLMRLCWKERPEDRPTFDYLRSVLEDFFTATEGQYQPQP
Serine/threonine-protein kinase PAK 5 (Homo sapiens), sequence (Q9P286 whole entry, looked up): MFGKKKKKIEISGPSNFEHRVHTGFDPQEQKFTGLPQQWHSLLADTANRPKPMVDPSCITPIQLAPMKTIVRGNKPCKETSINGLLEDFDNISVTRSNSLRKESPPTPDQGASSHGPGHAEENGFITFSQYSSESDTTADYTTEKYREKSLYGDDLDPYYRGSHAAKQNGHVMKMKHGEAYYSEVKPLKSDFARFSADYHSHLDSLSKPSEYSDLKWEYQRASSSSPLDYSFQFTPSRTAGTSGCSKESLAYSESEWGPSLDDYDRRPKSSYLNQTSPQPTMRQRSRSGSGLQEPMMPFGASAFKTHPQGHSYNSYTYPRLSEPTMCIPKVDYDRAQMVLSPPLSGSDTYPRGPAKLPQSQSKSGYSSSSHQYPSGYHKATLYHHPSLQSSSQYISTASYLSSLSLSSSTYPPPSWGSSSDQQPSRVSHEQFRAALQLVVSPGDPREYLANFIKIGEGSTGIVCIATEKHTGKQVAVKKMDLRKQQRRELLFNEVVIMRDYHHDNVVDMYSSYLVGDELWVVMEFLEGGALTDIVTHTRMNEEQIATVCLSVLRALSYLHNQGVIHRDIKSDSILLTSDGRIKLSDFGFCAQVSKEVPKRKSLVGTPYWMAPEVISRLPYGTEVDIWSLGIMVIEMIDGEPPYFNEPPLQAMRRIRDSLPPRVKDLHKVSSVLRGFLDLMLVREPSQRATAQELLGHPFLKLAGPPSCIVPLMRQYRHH
Serine/threonine-protein kinase PAK 4 (Homo sapiens), sequence (O96013 whole entry, looked up): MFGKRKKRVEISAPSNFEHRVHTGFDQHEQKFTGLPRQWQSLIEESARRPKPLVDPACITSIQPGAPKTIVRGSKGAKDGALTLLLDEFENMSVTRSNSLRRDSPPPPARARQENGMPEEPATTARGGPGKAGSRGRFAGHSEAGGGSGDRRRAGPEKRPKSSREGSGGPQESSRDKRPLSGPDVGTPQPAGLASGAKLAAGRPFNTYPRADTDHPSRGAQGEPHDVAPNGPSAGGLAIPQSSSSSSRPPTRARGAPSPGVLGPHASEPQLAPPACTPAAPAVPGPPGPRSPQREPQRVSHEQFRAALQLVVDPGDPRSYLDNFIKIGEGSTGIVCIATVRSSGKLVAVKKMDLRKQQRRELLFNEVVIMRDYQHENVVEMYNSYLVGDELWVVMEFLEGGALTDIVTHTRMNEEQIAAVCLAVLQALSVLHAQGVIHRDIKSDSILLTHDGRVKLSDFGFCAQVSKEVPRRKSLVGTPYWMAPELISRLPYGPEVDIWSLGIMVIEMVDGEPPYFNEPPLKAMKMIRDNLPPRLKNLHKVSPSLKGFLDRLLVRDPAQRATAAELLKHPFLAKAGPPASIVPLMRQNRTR
Serine/threonine-protein kinase PINK1, mitochondrial (Homo sapiens), sequence (Q9BXM7 whole entry): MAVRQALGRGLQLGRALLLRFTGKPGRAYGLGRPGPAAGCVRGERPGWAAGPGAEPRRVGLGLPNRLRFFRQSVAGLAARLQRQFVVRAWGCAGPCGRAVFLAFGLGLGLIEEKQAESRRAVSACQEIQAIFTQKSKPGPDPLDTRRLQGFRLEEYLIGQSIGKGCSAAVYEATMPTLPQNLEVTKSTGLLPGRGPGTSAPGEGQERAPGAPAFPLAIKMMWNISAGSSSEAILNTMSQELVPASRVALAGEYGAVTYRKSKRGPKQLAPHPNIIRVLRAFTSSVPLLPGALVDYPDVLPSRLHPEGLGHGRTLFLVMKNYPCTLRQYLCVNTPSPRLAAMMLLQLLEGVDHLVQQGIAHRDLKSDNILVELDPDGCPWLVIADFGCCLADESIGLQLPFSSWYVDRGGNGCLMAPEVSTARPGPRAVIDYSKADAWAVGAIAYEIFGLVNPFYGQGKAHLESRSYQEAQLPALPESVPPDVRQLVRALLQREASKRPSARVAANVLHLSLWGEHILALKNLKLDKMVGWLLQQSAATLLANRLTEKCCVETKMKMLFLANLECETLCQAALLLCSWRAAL
Interleukin-1 receptor-associated kinase 4 (Homo sapiens), sequence (Q9NWZ3 whole entry): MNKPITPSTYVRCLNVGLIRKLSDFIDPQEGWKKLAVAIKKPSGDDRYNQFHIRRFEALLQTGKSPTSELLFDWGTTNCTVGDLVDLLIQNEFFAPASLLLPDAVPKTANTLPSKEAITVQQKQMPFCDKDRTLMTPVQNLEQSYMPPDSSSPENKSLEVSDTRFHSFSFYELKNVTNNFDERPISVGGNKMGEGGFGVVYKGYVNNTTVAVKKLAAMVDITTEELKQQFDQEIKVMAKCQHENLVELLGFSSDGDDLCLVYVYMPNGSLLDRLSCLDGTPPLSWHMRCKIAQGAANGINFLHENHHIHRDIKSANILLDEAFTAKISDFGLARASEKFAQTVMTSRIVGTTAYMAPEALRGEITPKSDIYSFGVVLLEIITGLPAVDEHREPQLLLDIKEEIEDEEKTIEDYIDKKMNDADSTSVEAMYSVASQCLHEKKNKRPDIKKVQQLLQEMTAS
Serine/threonine-protein kinase 24 (Homo sapiens), sequence (Q9Y6E0 whole entry, looked up): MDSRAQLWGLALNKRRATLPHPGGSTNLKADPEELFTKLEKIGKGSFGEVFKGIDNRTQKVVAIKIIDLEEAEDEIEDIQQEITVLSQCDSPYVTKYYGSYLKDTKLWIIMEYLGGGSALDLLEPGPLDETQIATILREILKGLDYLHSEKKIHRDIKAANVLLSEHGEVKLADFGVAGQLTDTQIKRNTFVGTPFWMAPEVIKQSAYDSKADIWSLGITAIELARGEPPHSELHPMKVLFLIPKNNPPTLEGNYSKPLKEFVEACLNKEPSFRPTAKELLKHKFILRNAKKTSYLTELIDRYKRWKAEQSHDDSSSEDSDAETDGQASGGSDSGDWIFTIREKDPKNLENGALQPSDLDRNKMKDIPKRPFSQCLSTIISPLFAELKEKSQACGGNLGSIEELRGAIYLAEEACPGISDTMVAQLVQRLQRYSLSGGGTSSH
Aurora kinase B (Homo sapiens), sequence (Q96GD4 whole entry): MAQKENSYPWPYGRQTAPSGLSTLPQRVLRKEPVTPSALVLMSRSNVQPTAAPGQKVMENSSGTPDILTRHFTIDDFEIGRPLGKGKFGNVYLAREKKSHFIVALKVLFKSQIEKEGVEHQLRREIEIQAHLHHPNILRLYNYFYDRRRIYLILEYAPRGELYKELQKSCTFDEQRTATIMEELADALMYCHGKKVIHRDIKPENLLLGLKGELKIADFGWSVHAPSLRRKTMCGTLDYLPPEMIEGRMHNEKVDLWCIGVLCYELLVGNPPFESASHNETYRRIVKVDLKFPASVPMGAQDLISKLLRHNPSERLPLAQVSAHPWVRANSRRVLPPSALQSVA

NCCCC[C@H](NC(=O)[C@H](CC(=O)O)NC(=O)[C@H](CC(=O)O)NC(=O)[C@H](CC(=O)O)NC(=O)[C@H](CC(=O)O)NC(=O)[C@H](CC(=O)O)NC(=O)[C@H](CC(=O)O)NC(=O)CCCCCCCCOc1nc2cc(C(=O)O)ccc2c2cnccc12)C(=O)O (X1-DDDDDDK-OH)
Activity [1]: 88%
Activity [2]: 86%
Activity [3]: 13%
Activity [4]: 19%
Activity [5]: 23%
Activity [6]: 26%
Activity [7]: 39%
Activity [8]: 58%
Activity [9]: 62%
Activity [10]: 63%
Activity (Homo sapiens [11]): 63%
Activity [12]: 67%
Activity [13]: 80%
Activity [14]: 81%
Activity [15]: 84%
Activity [16]: 90%
Activity [17]: 91%
Activity [18]: 93%
Activity [19]: 93%
Activity (Homo sapiens [20]): 97%
Activity [21]: 97%
Activity [22]: 97%
Activity [23]: 97%
Activity [24]: 100%
Activity [25]: 102%
Activity [26]: 103%
Activity [27]: 106%
Activity [28]: 107%
Activity [29]: 109%
Activity [30]: 118%
